Measured values: PubChem BioAssay (NCI)
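Exposure lasted 48 hours, with cells grown in 96-well plates and compounds tested at five concentrations. Here, GI50 denotes the concentration required for 50% inhibition of growth. TGI marks complete inhibition of growth.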

Assays:
Assay in all cases: DTP human tumour cell line panel, 48 h
LOX IMVI melanoma = test system: LOX IMVI melanoma
KM12 colon = test system: KM12 colon
BT-549 breast = test system: BT-549 breast
MALME-3M melanoma = test system: MALME-3M melanoma
HCC-2998 colon = test system: HCC-2998 colon
HS 578T breast = test system: HS 578T breast
SF-539 CNS = test system: SF-539 CNS
EKVX NSCLC = test system: EKVX NSCLC
HL-60(TB) leukemia = test system: HL-60(TB) leukemia
SK-MEL-2 melanoma = test system: SK-MEL-2 melanoma

Row | SMILES | TGI (LOX IMVI melanoma) | TGI (KM12 colon) | TGI (BT-549 breast) | TGI (MALME-3M melanoma) | TGI (HCC-2998 colon) | TGI (HS 578T breast) | TGI (SF-539 CNS) | TGI (EKVX NSCLC) | TGI (HL-60(TB) leukemia) | GI50 (LOX IMVI melanoma) | GI50 (KM12 colon) | GI50 (BT-549 breast) | GI50 (HCC-2998 colon) | GI50 (HS 578T breast) | GI50 (SF-539 CNS) | GI50 (EKVX NSCLC) | GI50 (HL-60(TB) leukemia) | TGI (SK-MEL-2 melanoma)
1 | CC(=O)NC(C)(C)C1CCC(C)CC1 (stereo not given) | > 100 µM | > 100 µM | > 100 µM | > 100 µM | > 100 µM | > 100 µM | > 100 µM | > 100 µM | > 100 µM | – | – | – | – | – | – | – | – | –
2 | COC(=O)C1(Cc2ccccc2)Cc2cc3c(cc2C1O)CCC3 (stereo not given) | 34.7 µM | 48.3 µM | 31.9 µM | 30.7 µM | 60.6 µM | 34.7 µM | 36.7 µM | 50.4 µM | > 100 µM | – | – | – | – | – | – | – | – | –
3 | COc1ccc2c3/c(=C\c4ccc(N(C)C)cc4)c4ccccc4n3[n+](C)c2c1 | > 100 µM | 1.24 µM | 2.7 µM | – | 0.31 µM | – | 0.748 µM | 4.16 µM | – | 0.094 µM | 0.255 µM | 0.129 µM | < 0.0378 µM | 0.162 µM | 0.0409 µM | 0.11 µM | 0.051 µM | –
4 | O=c1[nH]cnc2c1cnn2Cc1cnnn1COCCO | > 100 µM | > 100 µM | > 100 µM | > 100 µM | > 100 µM | > 100 µM | > 100 µM | > 100 µM | > 100 µM | – | – | – | – | – | – | – | – | > 100 µM
5 | CCNC(=S)NNC(=O)c1ccccc1Nc1ccccc1C(=O)NNC(=S)NCC | > 100 µM | > 100 µM | > 100 µM | > 100 µM | > 100 µM | > 100 µM | – | > 100 µM | > 100 µM | – | – | – | – | – | – | – | – | > 100 µM
6 | Cc1nc2ccc(NC3OCC(O)C(O)C3O)cc2c(=O)n1-c1ccccc1 (stereo not given) | > 100 µM | > 100 µM | > 100 µM | > 100 µM | > 100 µM | > 100 µM | – | > 100 µM | > 100 µM | – | – | – | – | – | – | – | – | > 100 µM
7 | COc1cc(/C=C/C(=N\NC(N)=S)c2sc(NNC(C)=O)nc2C)ccc1O | > 100 µM | > 100 µM | > 100 µM | > 100 µM | > 100 µM | > 100 µM | > 100 µM | > 100 µM | > 100 µM | – | – | – | – | – | – | – | – | > 100 µM
8 | C(=C/c1nnnn1-c1ccccc1)/Nc1ccccc1 | > 100 µM | > 100 µM | 53.9 µM | > 100 µM | 97.7 µM | > 100 µM | 64.7 µM | > 100 µM | > 100 µM | – | – | – | – | – | – | – | – | 20.6 µM
